Experimental findings from ChEMBL document CHEMBL1201862, “PubChem BioAssay data set” (2004) are described below.

Molecules are shown by their SMILES.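 How tested: cells in 96-well plates exposed to compound for 48 hours at five concentrations. Here, GI50 denotes the concentration required for 50% inhibition of growth.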 Activity calls are given as the source filed them. Cut-off read from the data, not from the text of the source: active = GI50 up to about 1.1 µM and inactive = higher. Bounds are passed on as bounds.

Some test systems named below: SNB-75; NCI-H23; PC-3; SR; Malme-3M; HCT-15; KM12; ACHN; UO-31; HCC 2998; COLO 205; MCF7; CCRF-CEM; OVCAR-3; IGROV-1; RXF 393; T47D; SK-OV-3; MDA-N; HOP-62.
Common to all, as to assay: growth of human tumour cells (NCI), 48 h

For `Nc1nc(F)nc2c1ncn2C1OC(COP(=O)(O)O)C(O)C1O` (stereo not given), the GI50 was 188 µM (inactive) with SNB-75; 19.6 µM (inactive) in the assay with NCI-H23; 16.6 µM (inactive) in the assay with PC-3; 21.8 µM (inactive) in the assay with SR; 23.3 µM (inactive) with Malme-3M; 175 µM in the assay on HCT-15. Further, the GI50 is 266 µM (inactive) in the assay on KM12; 32.1 µM (inactive) in the assay on ACHN; 13.2 µM (inactive) in the assay with UO-31; 177 µM (inactive) in the assay on HCC 2998; 95.1 µM (inactive) with COLO 205; 78.3 µM (inactive) with MCF7. The GI50 in the assay with CCRF-CEM was 1.59 µM (inactive); with OVCAR-3, 119 µM (inactive); in the assay with IGROV-1, 286 µM (inactive); in the assay on RXF 393 it was 51.4 µM (inactive); in the assay on T47D, 78.7 µM (inactive); in the assay on SK-OV-3, 26.9 µM (inactive). The figures for the GI50 in the assay with MDA-N and in the assay on HOP-62 were 34 µM (inactive) and 8.53 µM (inactive), respectively.
As to `CC(C)c1ccc2c(c1)/C(=C1/Nc3ccccc3/C1=N/O)C(=O)N2`, the GI50 with SNB-75 was 12.7 µM (inactive); in the assay on NCI-H23, 3.93 µM (inactive); in the assay on PC-3, 6.64 µM (inactive); with SR it was 2.61 µM (inactive); in the assay with Malme-3M, 3.72 µM (inactive); in the assay on HCT-15, 3.98 µM. The GI50 was 0.0431 µM (active) in the assay with KM12; 3.33 µM (inactive) in the assay with ACHN; 3.69 µM (inactive) in the assay with UO-31; 4.75 µM (inactive) in the assay with HCC 2998; 5.22 µM (inactive) in the assay with COLO 205; 1.69 µM (inactive) in the assay on MCF7. Also, the GI50 with CCRF-CEM was 3.14 µM (inactive); in the assay on OVCAR-3 it was 7.46 µM (inactive); in the assay on IGROV-1, 8.73 µM (inactive); with RXF 393, 2.07 µM (inactive); in the assay with T47D, 3.88 µM (inactive); in the assay with SK-OV-3, 6.55 µM (inactive). Also, the GI50 was 6.73 µM (inactive) with MDA-N and 10.7 µM (inactive) with HOP-62.
`Cn1c2c(c3ccccc31)CC(=O)N1CCCCC1C21OCCO1` (stereo not given): the GI50 in the assay with SNB-75 was > 100 µM (inactive); with NCI-H23 it was > 100 µM (inactive); in the assay with PC-3, > 100 µM (inactive); in the assay with SR, > 100 µM (inactive); in the assay on Malme-3M it was > 100 µM (inactive); in the assay with HCT-15 it was > 100 µM. The GI50 with KM12, in the assay on ACHN, in the assay with UO-31, in the assay with HCC 2998, in the assay with COLO 205 and in the assay with MCF7 was > 100 µM (inactive) in each case. Further, the GI50 in the assay with CCRF-CEM, with OVCAR-3, in the assay with IGROV-1, in the assay on RXF 393, with T47D and in the assay with SK-OV-3 was > 100 µM (inactive) each time. Besides, the GI50 in the assay with MDA-N and with HOP-62 was > 100 µM (inactive) throughout.
Turning to `CNC1C(=O)C(C)C(O)(C(CC(C)C(O)/C=C/C=C/CNC(=O)C(C)(C)C(O)\C(C)=C/C=C\C=C\Cc2cnc(C)o2)OC)C12C(=O)OC2C.CNC1C(=O)C(C)C(O)(C(CC(C)C(O)/C=C/C=C/CNC(=O)C(C)(C)C(O)\C(C)=C/C=C\C=C\Cc2cnc(C)o2)OC)C12C(=O)OC2COC` (stereo not given), the GI50 was 0.942 µM (active) with SNB-75; 0.218 µM (active) with NCI-H23; 0.237 µM (active) in the assay on PC-3; 15.1 µM (inactive) with SR; 9.04 µM (inactive) in the assay on Malme-3M; 21 µM with HCT-15. Besides, the GI50 in the assay on KM12 was 7.01 µM (inactive); in the assay on ACHN, 3.3 µM (inactive); in the assay with UO-31, 10.5 µM (inactive); in the assay with HCC 2998 it was 13.3 µM (inactive); in the assay with COLO 205, 0.778 µM (active); with MCF7, 0.354 µM (active). Besides, the GI50 was 0.614 µM (active) in the assay with CCRF-CEM; 1.56 µM (inactive) in the assay on OVCAR-3; 0.931 µM (active) in the assay on IGROV-1; 17.3 µM (inactive) in the assay on RXF 393; 0.202 µM (active) in the assay with T47D; 19 µM (inactive) in the assay on SK-OV-3. The values for the GI50 in the assay on MDA-N and with HOP-62 were 15 µM (inactive) and 8.43 µM (inactive), respectively.
Regarding `Clc1ccc(CCN(CCc2ccc(Cl)c(Cl)c2)CCN2CCCC2)cc1Cl`, the GI50 with SNB-75 was 2.23 µM (inactive); in the assay on NCI-H23, 1.82 µM (inactive); with PC-3, 1.57 µM (inactive); in the assay on SR, 2.01 µM (inactive); in the assay on Malme-3M, 1.78 µM (inactive); in the assay with HCT-15 it was 1.79 µM. The GI50 in the assay on KM12 was 1.67 µM (inactive); in the assay with ACHN, 1.74 µM (inactive); with UO-31 it was 1.64 µM (inactive); with HCC 2998 it was 1.68 µM (inactive); with COLO 205, 1.89 µM (inactive); with MCF7, 1.51 µM (inactive). The GI50 is 1.15 µM (inactive) with CCRF-CEM; 1.73 µM (inactive) in the assay with OVCAR-3; 1.58 µM (inactive) in the assay with IGROV-1; 1.72 µM (inactive) in the assay on RXF 393; 3.27 µM (inactive) in the assay on T47D; 1.78 µM (inactive) in the assay with SK-OV-3. In addition, the GI50 with MDA-N was 1.87 µM (inactive); in the assay with HOP-62 it was 1.67 µM (inactive).
As for `CCCCCCN(C(=O)Oc1ccccc1)C(C#N)c1ccccc1` (stereo not given), the GI50 in the assay with SNB-75 is > 100 µM (inactive); in the assay with NCI-H23, > 100 µM (inactive); in the assay with PC-3, > 100 µM (inactive); with SR, > 100 µM (inactive); with Malme-3M, > 100 µM (inactive); in the assay on HCT-15 it was > 100 µM. Further, the GI50 in the assay with KM12, with ACHN, in the assay with UO-31, in the assay with HCC 2998, in the assay with COLO 205 and in the assay with MCF7 was > 100 µM (inactive) throughout. Besides, the GI50 in the assay with CCRF-CEM, with OVCAR-3, with IGROV-1, in the assay on RXF 393, in the assay with T47D and with SK-OV-3 was > 100 µM (inactive) in each case. Besides, the GI50 with MDA-N and in the assay with HOP-62 was > 100 µM (inactive) throughout.
On to `CN(CCCNC(=O)c1cn(C)c2c1ccc1cc(Cl)c(Cl)cc12)CCCNC(=O)c1cn(C)c2c1ccc1cc(Cl)c(Cl)cc12`, for which the GI50 in the assay on SNB-75 was 10.8 µM (inactive); with NCI-H23 it was 14.6 µM (inactive); with PC-3, 13.3 µM (inactive); in the assay on SR, 4.57 µM (inactive); in the assay with Malme-3M, 17.1 µM (inactive); in the assay on HCT-15, 11.9 µM. Also, the GI50 in the assay on KM12 was 5.31 µM (inactive); in the assay on ACHN, 13.1 µM (inactive); in the assay with UO-31, 16.7 µM (inactive); in the assay on HCC 2998, 4 µM (inactive); in the assay with COLO 205, 3.18 µM (inactive); in the assay with MCF7, 5.16 µM (inactive). The GI50 with CCRF-CEM is 8.53 µM (inactive); with OVCAR-3, 18.2 µM (inactive); with IGROV-1, 7.62 µM (inactive); in the assay with RXF 393, 4.42 µM (inactive); in the assay with T47D, 13.7 µM (inactive); in the assay on SK-OV-3, 15.2 µM (inactive). For the same compound, the GI50 in the assay on MDA-N is 15.9 µM (inactive); with HOP-62, 14.3 µM (inactive).
Consider `ON[C@@H]1C=C[C@H](n2cnc3c(NC4CC4)ncnc32)C1`, for which the GI50 was > 100 µM (inactive) in the assay with SNB-75; > 100 µM (inactive) in the assay with NCI-H23; > 100 µM (inactive) with PC-3; 88.3 µM (inactive) in the assay with SR; > 100 µM (inactive) in the assay on Malme-3M; > 100 µM in the assay on HCT-15. In addition, the GI50 with KM12, in the assay with ACHN, with UO-31, in the assay with HCC 2998, in the assay with COLO 205 and in the assay on MCF7 was > 100 µM (inactive) in each case. Moreover, the GI50 was > 100 µM (inactive) in the assay with CCRF-CEM; > 100 µM (inactive) in the assay on OVCAR-3; 94.4 µM (inactive) in the assay with IGROV-1; > 100 µM (inactive) with RXF 393; > 100 µM (inactive) in the assay on T47D; > 100 µM (inactive) in the assay with SK-OV-3. Moreover, the GI50 in the assay with MDA-N and in the assay with HOP-62 was > 100 µM (inactive) in each case.
As for `Cc1ccc(NC(=S)C#N)c(C)c1`, the GI50 is > 82.4 µM (inactive) with SNB-75; > 69.5 µM (inactive) in the assay on NCI-H23; > 100 µM (inactive) in the assay with PC-3; 33.7 µM (inactive) in the assay with SR; 44.2 µM (inactive) in the assay on Malme-3M; > 92.7 µM with HCT-15. Moreover, the GI50 is > 82.8 µM (inactive) in the assay with KM12; > 100 µM (inactive) in the assay on ACHN; 50 µM (inactive) in the assay on UO-31; > 100 µM (inactive) with HCC 2998; > 84.1 µM (inactive) in the assay on COLO 205; > 69.5 µM (inactive) in the assay on MCF7. The GI50 in the assay with CCRF-CEM was 24.2 µM (inactive); in the assay with OVCAR-3, 37.7 µM (inactive); in the assay on IGROV-1 it was > 63 µM (inactive); in the assay with RXF 393 it was > 100 µM (inactive); in the assay on T47D it was 46 µM (inactive); in the assay on SK-OV-3, > 100 µM (inactive). Besides, the values for the GI50 with MDA-N and with HOP-62 were > 82.2 µM (inactive) and > 100 µM (inactive), respectively.
Regarding `O=c1/c(=C/c2ccc([N+](=O)[O-])o2)sc2n1[C@@H](c1ccc3c(c1)OCO3)C=C(c1cc(F)c(Cl)cc1Cl)N=2`, the GI50 is 17.3 µM (inactive) with SNB-75; 20.6 µM (inactive) in the assay on NCI-H23; 22 µM (inactive) in the assay with PC-3; 3.33 µM (inactive) with SR; 19.7 µM (inactive) in the assay with Malme-3M; 9.59 µM in the assay on HCT-15. Moreover, the GI50 was 16.6 µM (inactive) in the assay on KM12; 16.1 µM (inactive) in the assay on ACHN; 16.7 µM (inactive) in the assay on UO-31; 12.9 µM (inactive) in the assay with HCC 2998; 18.7 µM (inactive) with COLO 205; 10 µM (inactive) in the assay with MCF7. Further, the GI50 is 3.24 µM (inactive) in the assay with CCRF-CEM; 16.8 µM (inactive) in the assay on OVCAR-3; 16.3 µM (inactive) in the assay with IGROV-1; 16.1 µM (inactive) in the assay with RXF 393; 17.3 µM (inactive) with T47D; 46.5 µM (inactive) in the assay on SK-OV-3. Further, the GI50 was 5.5 µM (inactive) in the assay on MDA-N and 22.5 µM (inactive) with HOP-62.
